This note sets out measurements from patent publication US6291485A, “4,5-dihydro-[1H]-benz[g]indazole-3-carboxylic acid derivatives” (Teikoku Hormone Mfg. Co., Ltd., priority 1997, dated 2001).

The target of one experiment is T1, ETB receptor (Homo sapiens, UniProt P24530).
T1 construct: a crude receptor membrane fraction from the human placenta; from tissue; host or cells: human placenta, crude membrane fraction
T1 sequence (P24530 27-442): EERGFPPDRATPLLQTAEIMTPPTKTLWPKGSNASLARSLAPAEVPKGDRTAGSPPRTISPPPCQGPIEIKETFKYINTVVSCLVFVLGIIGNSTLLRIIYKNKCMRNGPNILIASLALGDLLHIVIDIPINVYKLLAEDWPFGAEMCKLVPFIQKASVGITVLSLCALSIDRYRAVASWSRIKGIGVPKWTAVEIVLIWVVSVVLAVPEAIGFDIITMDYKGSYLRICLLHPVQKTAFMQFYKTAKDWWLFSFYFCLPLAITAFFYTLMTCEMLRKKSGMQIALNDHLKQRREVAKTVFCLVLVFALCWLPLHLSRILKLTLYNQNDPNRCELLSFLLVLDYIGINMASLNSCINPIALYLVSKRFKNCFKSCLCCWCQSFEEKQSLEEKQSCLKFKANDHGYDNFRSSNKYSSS
The experiment is described as follows: binding of 125I-ET-1 to crude receptor membrane fraction from the human placenta (ETB). The note with it: human placenta membranes, 125I-ET-1, 25° C., 120 minutes, pH 7.0. On the procedure: (§1) (1) Measurement of Antagonism to Endothelin Receptors
(§2) Among the endothelin (ET) receptor subtypes, the binding of ET to the ETA and ETB subtypes was measured by using a crude receptor membrane fraction from the porcine thoracic aorta and a crude receptor membrane fraction from the human placenta, respectively. The tissue (about 40 g) as washed, minced with scissors, and homogenized in 4 volumes of solution A [20 mM HEPES (N-2-hydroxyethylpiperazine-N'-2-ethanesulfonic acid), 3 mM EGTA (ethylene glycol bis(β-aminoethyl ether)-N,N,N',N'-tetraacetic acid), 5 mM EDTA (ethylenediaminetetraacetic acid), 2 μg/ml aprotinin, 3 μg/ml leupeptin, 3 μg/ml pepstatin A, 0.25 mg/ml bacitracin, 0.25 M sucrose] by means of an Ultra-turrax. The resulting homogenate was centrifuged at 8,000 g for 20 minutes, and the supernatant was further centrifuged at 80,000 g for 60 minutes. The precipitate was suspended in solution A and used as a crude receptor membrane fraction, which was divided into portions and stored in a frozen state at -70° C. As a radioligand, 325 Bq of ^125 I-ET-1 (81.4 TBq/mmol; manufactured by DuPont-New England Nuclear, Boston, Mss., U.S.A) was placed in a test tube. Then, the crude receptor membrane fraction (20 μg as protein) and a test compound were added thereto. Nonspecific binding was measured by the addition of 125 nM ET-1. The reaction was carried out in solution B [30 mM HEPES, 0.15 M NaCl, 5 mM MgCl2, 0.5 mg/ml bacitracin, 1 mg/ml bovine serum albumin, pH 7.0) at 25° C. for 120 minutes. In order to separate the free radioactive ligand from the membrane-bound one, the reaction mixture was quickly filtered through a glass filter treated with 0.3% polyethylene-imine (GF/C; manufactured by Whatman Inc., U.S.A.) and washed twice with ice-cold solution B. Thereafter, the radioactivity remaining on the filter was measured with a gamma counter.

The next experiment deals with T2, ETA receptor (Sus scrofa, UniProt Q29010).
T2 construct: crude receptor membrane fraction from the porcine thoracic aorta; from tissue; host or cells: porcine thoracic aorta, crude membrane fraction
T2 sequence (Q29010 21-427): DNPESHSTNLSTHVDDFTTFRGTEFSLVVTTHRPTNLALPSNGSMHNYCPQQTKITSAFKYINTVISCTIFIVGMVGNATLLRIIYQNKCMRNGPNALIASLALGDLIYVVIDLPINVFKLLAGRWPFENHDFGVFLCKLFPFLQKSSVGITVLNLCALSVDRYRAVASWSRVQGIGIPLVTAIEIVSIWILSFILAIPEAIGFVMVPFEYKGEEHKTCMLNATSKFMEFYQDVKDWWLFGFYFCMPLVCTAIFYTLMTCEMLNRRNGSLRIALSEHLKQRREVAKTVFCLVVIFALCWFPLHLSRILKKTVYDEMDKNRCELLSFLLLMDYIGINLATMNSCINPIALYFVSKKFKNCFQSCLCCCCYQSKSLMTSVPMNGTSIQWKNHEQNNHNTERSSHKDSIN
The experiment is described as follows: binding of 125I-ET-1 to crude receptor membrane fraction from the porcine thoracic aorta (ETA). The note with it: porcine thoracic aorta membranes, 125I-ET-1, 25° C., 120 minutes, pH 7.0. Here is the method: as §1, §2

The target in a further experiment is T3, phosphodiesterase III (Cavia porcellus, UniProt H0VIU9).
T3 construct: hearts excised from male Hartley strain guinea pigs (400-600 g); from tissue; host or cells: guinea pig heart, 40,000 g supernatant, DEAE-cellulose fraction
T3 sequence (H0VIU9 1-1132): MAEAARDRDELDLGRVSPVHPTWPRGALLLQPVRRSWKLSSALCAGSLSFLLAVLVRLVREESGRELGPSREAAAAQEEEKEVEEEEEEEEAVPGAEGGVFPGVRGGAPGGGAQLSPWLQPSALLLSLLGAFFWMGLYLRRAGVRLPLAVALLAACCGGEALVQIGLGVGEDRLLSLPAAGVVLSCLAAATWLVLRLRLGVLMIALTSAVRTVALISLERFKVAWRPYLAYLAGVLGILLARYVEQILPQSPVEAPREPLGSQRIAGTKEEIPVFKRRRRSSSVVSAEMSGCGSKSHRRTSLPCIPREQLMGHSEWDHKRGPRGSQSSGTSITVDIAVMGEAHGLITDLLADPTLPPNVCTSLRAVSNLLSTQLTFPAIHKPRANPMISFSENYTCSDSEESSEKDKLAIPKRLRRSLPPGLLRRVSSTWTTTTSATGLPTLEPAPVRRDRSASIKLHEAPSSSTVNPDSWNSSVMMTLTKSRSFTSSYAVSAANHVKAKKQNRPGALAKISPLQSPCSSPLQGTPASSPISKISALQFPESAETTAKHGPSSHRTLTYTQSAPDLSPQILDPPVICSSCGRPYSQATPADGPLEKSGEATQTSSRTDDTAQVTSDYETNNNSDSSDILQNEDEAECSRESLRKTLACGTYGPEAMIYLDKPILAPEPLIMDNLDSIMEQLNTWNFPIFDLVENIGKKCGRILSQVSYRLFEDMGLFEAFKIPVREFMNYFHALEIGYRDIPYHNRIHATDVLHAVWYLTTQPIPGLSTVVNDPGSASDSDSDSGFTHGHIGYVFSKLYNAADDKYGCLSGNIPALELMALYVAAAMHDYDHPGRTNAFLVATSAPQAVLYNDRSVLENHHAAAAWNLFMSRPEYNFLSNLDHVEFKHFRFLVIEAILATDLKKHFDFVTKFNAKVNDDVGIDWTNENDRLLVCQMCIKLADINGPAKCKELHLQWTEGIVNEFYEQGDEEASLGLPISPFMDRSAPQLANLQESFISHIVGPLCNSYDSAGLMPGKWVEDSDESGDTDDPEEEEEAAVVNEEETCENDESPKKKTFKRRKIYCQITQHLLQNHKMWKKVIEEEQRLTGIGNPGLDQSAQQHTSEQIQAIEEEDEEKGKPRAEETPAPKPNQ
The experiment is described as follows: inhibitory effect on phosphodiesterase III ([3H] cAMP conversion, enzyme fraction from guinea pig hearts). It counts as biochemical. The note with it: for IC50: guinea pig heart enzyme, 0.1 μM [3H] cAMP, 30° C., 10 minutes, pH=8.0; for inhibitory effect on phosphodiesterase III: statement in words. Here is the method: Phosphodiesterase III was prepared according to the method of Frodsham et al. (Eur. J. Pharmacol., Vol. 211, pp. 383-391, 1992).
Specifically, hearts excised from male Hartley strain guinea pigs (400-600 g) were placed in 8 volumes of solution C [10 mM trishydroxymethyl)aminomethane-acetic acid buffer (pH=7.5), 2 mM magnesium chloride, 1 mM dithiothreitol, 2,000 units/ml aprotinin, 50 μM phenylmethylsulfonyl fluoride], minced with scissors, and homogenized three times for 10 seconds by means of a Polytron. The resulting homogenate was centrifuged at 40,000 g for 30 minutes, and the supernatant was applied onto a DEAE-cellulose column and eluted with a linear concentration gradient ranging from 0.2 M to 0.6 M sodium acetate (pH 6.5). The fractions eluted at 0.4-0.5 M were pooled and used as a phosphodiesterase III enzyme fraction.
Specifically, a test compound and the phosphodiesterase III enzyme fraction were added to 0.4 ml of a reaction solution [40 mM tris(hydroxymethyl)aminomethane-hydrochloric acid buffer (pH=8.0), 5 mM magnesium chloride, 1 mM dithiothreitol, 0.1 μM [^3 H] cAMP]. This mixture was reacted at 30° C. for 10 minutes. After completion of the reaction, 5'-nuclease was added thereto so as to convert [^3 H] 5'-AMP, which was the reaction product with phosphodiesterase III, to [^3 H] adenosine. Then, the [^3 H] cAMP and [^3 H] adenosine present in the reaction mixture were separated with the aid of an anion exchanger.

The test system of another experiment is endothelin receptors. The experiment in a line: antagonism to endothelin receptors (statement in words, no subtype). Format: binding. Here is the method:
as §1
as §2, with “The precipitate was suspended in solution A and used as a crude receptor membrane fraction, which was divided into portions and stored in a frozen state at -70° C. As a radioligand, 325 Bq of ^125 I-ET-1 (81.4 TBq/mmol; manufactured by DuPont-New England Nuclear, Boston, Mss., U.S.A) was placed in a test tube. Then, the crude receptor membrane fraction (20 μg as protein) and a test compound were added thereto.” left out, “The reaction was carried out in solution B [30 mM HEPES, 0.15 M NaCl, 5 mM MgCl2, 0.5 mg/ml bacitracin, 1 mg/ml bovine serum albumin, pH 7.0) at 25° C. for 120 minutes.” left out

In general, IC50 refers to the concentration needed to halve the response being measured.

For `COc1cccc(Cn2nc(C(=O)O)c3c2-c2ccc(OCc4cncnc4)cc2CC3)c1` [Example 2, 4,5-dihydro-1-(3-methoxybenzyl)-7-(5-pyrimidinylmethoxy)-[1H]-benz[g]indazole-3-carboxylic acid], the IC50 on ETB receptor stood at 0.14 µM; on ETA receptor, 0.031 µM.
The like results for `CCOc1cccc(Cn2nc(C(=O)O)c3c2-c2ccc(OCc4cncnc4)cc2CC3)c1` [Example 14] were, in that order, 0.115 µM and 0.0168 µM.
With `CCOc1cccc(C(c2ccccn2)n2nc(C(=O)O)c3c2-c2ccc(OCc4cncnc4)cc2CC3)c1` (stereo not shown) [Example 70], the figures for the IC50 at phosphodiesterase III, on ETB receptor and on ETA receptor were 0.58 µM, 0.0113 µM and 0.0025 µM, respectively. Also, at phosphodiesterase III, the “inhibitory effect on phosphodiesterase III” value is on record as “inhibitory effect on phosphodiesterase III”. For the same compound, the “antagonism to endothelin receptors” value in the experiment on endothelin receptors is “excellent antagonism to endothelin receptors”.
As to `CCOc1cccc(C(CC)n2nc(C(=O)O)c3c2-c2ccc(OCc4cncnc4)cc2CC3)c1` (stereo not drawn) [Example 34, 4,5-dihydro-1-(3-ethoxy-α-ethylbenzyl)-7-(5-pyrimidinylmethoxy)-[1H]-benz[g]indazole-3-carboxylic acid], the figures for the IC50 on phosphodiesterase III, at ETB receptor and on ETA receptor were 0.075 µM, 0.153 µM and 0.0045 µM, respectively. In addition, the “inhibitory effect on phosphodiesterase III” value at phosphodiesterase III is on record as “inhibitory effect on phosphodiesterase III”. Also, in the experiment with endothelin receptors, the “antagonism to endothelin receptors” value is “excellent antagonism to endothelin receptors”.
With `CCOCC(c1cccc(OCC)c1)n1nc(C(=O)O)c2c1-c1ccc(OCc3cncnc3)cc1CC2` (stereo not drawn) [Example 41, 4,5-dihydro-1-(3-ethoxy-α-ethoxymethyl-benzyl)-7-(5-pyrimidinylmethoxy)-[1H]-benz[g]indazole-3-carboxylic acid], the IC50 at ETB receptor is 0.092 µM; on ETA receptor, 0.0074 µM.
